Earlier results on one compound are cited in patent US20090247521A1, “SOLUBLE EPOXIDE HYDROLASE INHIBITORS FOR THE TREATMENT OF ENDOTHELIAL DYSFUNCTION” (Arete Therapeutics, Inc., priority 2007, published 2009).

Molecules are shown by their SMILES.

The subject of the data set is thoracic aortic rings. Conditions: aortic rings from DOCA-salt hypertensive rats that received the s-EH inhibitor, compared with vehicle and normotensive controls.

Turning to `CCCCCCCCCCCCNC(=O)NC12CC3CC(CC(C3)C1)C2` [ADU, adamantyl dodecyl urea], the acetylcholine-induced endothelium-dependent vasorelaxation entry was “augmented acetylcholine-induced endothelium-dependent vasorelaxation, similar to that of the normotensive control animals”.
